Results on one compound are retold here after ChEMBL document CHEMBL4834472 (J Med Chem, 2021).

pIC50: −log10 of the molar value. Activity calls are given as the source filed them. The calls are words filed in the database; no cut-off is given here.

The target of experiment [1] is Dual specificity tyrosine-phosphorylation-regulated kinase 1B (Homo sapiens) (UniProt Q9Y463). In words: Inhibition of DYRK1B (unknown origin) assessed as residual activity at 500 nM.
Experiment [2] deals with T1, Receptor-type tyrosine-protein kinase FLT3 (Homo sapiens, UniProt P36888).
T1 sequence (P36888 whole entry): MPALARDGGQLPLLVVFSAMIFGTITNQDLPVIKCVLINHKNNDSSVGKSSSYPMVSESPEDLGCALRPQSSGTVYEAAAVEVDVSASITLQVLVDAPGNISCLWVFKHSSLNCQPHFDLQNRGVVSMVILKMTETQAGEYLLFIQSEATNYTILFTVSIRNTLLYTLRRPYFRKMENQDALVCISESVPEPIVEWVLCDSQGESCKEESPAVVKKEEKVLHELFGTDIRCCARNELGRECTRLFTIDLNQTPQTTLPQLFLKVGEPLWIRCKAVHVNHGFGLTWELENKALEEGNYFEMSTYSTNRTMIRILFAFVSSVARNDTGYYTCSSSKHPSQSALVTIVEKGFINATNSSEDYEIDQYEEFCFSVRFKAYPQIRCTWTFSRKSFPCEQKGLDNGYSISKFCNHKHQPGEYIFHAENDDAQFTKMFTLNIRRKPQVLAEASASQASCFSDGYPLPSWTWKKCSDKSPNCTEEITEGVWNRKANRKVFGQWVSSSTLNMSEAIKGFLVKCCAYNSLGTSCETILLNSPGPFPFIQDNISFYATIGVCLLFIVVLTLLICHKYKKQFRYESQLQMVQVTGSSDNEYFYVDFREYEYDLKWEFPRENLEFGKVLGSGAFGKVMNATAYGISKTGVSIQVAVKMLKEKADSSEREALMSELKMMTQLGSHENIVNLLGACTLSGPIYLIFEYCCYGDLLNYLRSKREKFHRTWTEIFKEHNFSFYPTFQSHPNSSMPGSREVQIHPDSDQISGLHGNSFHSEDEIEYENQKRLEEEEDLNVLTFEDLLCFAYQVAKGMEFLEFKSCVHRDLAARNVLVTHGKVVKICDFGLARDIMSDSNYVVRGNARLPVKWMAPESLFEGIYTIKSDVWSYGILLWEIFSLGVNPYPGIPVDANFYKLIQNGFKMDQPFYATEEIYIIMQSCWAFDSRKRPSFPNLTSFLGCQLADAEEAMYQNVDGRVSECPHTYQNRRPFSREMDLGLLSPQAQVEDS
In words: Inhibition of wild type FLT3 (unknown origin) using AGLT peptide substrate in presence of [32P]gammaATP by image analyser.

The target in experiment [3] is Receptor-type tyrosine-protein kinase FLT3 (Homo sapiens) (UniProt P36888). In words: Inhibition of FLT3 in human MV4-11 cells assessed as ERK1/2 phosphorylation at 20 to 100 nM incubated for 1 hrs by Western blot analysis. It counts as cell-based. The conditions noted are these: dose 20-100 nM.
For experiment [4] the target is unchanged. Put plainly: Inhibition of FLT3 autophosphorylation in human MV4-11 cells at 20 to 100 nM incubated for 1 hrs by Western blot analysis. Type of experiment: cell-based. As to conditions: dose 20-100 nM. Background: Immunoblotting shows a protein as a band on a membrane.
The target in experiment [5] is Cyclin-dependent kinase 4/cyclin D1 (Homo sapiens, UniProt P11802). Put plainly: Inhibition of CDK4/cyclin D1 (unknown origin) in presence of [32P]gammaATP by image analyser. It counts as protein-complex assay.
For a further experiment, the system named is MOLM-14. In words: Antiproliferative activity against human MOLM-14 cells harboring D835Y mutant assessed as cell death measured after 72 hrs by resazurin dye based assay. Type of experiment: functional. As to conditions: MOLM-14, 72 h.

For orientation: pIC50 means the IC50 on a negative log10 scale, so that one unit is a factor of ten.

Chain of Dual specificity tyrosine-phosphorylation-regulated kinase 1B (Homo sapiens) (Q9Y463 whole entry, looked up): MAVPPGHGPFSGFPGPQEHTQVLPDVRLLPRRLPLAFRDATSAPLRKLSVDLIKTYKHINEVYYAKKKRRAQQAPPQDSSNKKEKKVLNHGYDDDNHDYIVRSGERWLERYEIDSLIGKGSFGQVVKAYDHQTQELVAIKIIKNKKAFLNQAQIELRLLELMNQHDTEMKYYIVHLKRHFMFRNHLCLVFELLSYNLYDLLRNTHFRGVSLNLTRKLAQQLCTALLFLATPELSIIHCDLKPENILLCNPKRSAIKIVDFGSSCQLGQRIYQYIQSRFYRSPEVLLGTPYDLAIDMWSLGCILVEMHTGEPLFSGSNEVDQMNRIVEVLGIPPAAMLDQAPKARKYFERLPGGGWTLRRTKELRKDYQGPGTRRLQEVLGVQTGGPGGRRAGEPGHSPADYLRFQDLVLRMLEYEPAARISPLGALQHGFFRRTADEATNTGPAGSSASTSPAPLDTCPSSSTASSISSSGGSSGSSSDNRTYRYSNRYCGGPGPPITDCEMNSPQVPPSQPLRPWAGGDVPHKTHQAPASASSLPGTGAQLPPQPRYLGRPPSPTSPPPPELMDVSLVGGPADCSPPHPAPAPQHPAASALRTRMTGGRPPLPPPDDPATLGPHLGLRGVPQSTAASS
Chain of Cyclin-dependent kinase 4/cyclin D1 (P11802 whole entry): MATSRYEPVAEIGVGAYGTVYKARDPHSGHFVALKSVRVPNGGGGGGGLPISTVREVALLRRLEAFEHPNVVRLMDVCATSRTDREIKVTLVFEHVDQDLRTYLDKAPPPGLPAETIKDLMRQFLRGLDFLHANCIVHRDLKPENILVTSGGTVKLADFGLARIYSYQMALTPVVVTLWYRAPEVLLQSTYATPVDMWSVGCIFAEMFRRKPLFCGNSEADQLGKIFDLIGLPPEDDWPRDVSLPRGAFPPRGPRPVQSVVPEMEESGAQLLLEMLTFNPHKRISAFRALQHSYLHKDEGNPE
Chain of Cyclin-dependent kinase 4/cyclin D1 (P24385 whole entry, further chain): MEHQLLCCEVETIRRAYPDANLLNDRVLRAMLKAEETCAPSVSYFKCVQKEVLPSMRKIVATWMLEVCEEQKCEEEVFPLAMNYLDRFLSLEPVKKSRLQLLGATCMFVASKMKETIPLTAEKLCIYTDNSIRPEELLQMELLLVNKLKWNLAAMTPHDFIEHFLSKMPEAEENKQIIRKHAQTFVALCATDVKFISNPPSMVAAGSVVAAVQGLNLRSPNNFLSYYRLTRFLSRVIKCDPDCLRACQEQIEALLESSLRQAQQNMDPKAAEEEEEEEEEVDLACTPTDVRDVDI

With `Cc1n[nH]c2ccc3nc(-c4c[nH]nc4C(F)(F)F)c4c(c3c12)CCCC4`, the Activity in experiment [1] was determined as 4%. For the same compound, the pIC50 in experiment [2] is 7.60; in experiment [5], under 6.00; in the experiment on MOLM-14, 7.44. Moreover, in experiment [3], the inhibition entry is “inactive”. Further, the inhibition result in experiment [4] is “Active”.
